According to PMC3759356 (Cancer cell, 2013):

Target: T1, BARD1 (Homo sapiens, UniProt Q99728)
T1 sequence (Q99728 568-777 limits assumed): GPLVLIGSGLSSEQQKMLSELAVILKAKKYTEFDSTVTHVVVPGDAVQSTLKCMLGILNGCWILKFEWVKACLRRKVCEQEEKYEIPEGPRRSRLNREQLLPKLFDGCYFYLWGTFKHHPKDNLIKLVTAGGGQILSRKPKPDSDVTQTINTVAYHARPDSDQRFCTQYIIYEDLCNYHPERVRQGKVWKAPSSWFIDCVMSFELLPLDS
Test: ITC
Type: binding

Nc1ncnc2c1ncn2[C@@H]1O[C@H](COP(=O)(O)OP(=O)(O)OC[C@H]2OC(O)[C@H](O)[C@@H]2O)[C@@H](O)[C@H]1O (stereo partly shown) [ADP-ribose]
Kd: ~250 nM
